The values that follow come from patent publication US9242987B2, “Heterocyclyl pyrazolopyrimidine analogues as JAK inhibitors” (Cellzome Limited, priority 2009, dated 2016).

Structures are written as SMILES.

The target in assay [1] is T1, JAK3 (Homo sapiens, UniProt P52333).
T1 construct: endogenous in cells; host or cells: Mixed Molt4/Ramos lysate (1:2)
T1 sequence (P52333 1-1124): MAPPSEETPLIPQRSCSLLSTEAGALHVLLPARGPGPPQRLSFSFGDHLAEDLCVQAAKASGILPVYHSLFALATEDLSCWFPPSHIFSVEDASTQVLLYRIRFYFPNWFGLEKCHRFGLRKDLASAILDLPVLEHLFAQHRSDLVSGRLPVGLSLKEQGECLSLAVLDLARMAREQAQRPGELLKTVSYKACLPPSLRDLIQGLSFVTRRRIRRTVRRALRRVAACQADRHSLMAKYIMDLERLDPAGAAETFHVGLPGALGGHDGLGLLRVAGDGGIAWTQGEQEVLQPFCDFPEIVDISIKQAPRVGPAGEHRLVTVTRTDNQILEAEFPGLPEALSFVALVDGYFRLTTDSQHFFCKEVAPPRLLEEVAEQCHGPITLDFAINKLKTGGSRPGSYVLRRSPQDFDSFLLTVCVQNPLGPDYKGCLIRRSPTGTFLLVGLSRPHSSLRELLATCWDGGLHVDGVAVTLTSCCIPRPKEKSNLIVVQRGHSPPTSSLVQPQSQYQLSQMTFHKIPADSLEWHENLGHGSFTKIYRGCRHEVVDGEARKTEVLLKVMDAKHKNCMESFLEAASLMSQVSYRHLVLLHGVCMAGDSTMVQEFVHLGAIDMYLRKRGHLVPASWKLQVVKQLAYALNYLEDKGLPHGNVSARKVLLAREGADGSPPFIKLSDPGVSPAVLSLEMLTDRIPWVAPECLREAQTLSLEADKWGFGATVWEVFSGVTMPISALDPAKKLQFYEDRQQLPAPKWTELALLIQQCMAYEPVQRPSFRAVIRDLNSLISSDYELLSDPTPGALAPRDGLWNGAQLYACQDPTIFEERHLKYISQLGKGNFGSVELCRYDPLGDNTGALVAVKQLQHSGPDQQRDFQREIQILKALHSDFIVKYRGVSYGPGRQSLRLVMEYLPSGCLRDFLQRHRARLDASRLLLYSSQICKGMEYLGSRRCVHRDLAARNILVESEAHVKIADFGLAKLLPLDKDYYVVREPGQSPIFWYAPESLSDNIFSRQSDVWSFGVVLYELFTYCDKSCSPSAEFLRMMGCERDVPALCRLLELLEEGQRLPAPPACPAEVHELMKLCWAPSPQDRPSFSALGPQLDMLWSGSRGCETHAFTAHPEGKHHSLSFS
Description: Kinobeads assay, JAK3. In kind it is binding. The note with it: mixed Molt4/Ramos cell lysate, dot blot detection. Summed up:
(§1)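 Competition pulldown: compound dilution series incubated 3 h in cold room with immobilized aminopyrido-pyrimidine beads and mixed Molt4/Ramos lysate (1:2, 10 mg/mL protein) in DP buffer pH 7.4 with NP40. Bead-bound JAK2/JAK3 eluted, quantified by antibody dot blot with infrared detection; IC50 from dose-response curves.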

The target of assay [2] is T2, JAK2 (Homo sapiens, UniProt O60674).
T2 construct: endogenous in cells; host or cells: Mixed Molt4/Ramos lysate (1:2)
T2 sequence (O60674 whole entry): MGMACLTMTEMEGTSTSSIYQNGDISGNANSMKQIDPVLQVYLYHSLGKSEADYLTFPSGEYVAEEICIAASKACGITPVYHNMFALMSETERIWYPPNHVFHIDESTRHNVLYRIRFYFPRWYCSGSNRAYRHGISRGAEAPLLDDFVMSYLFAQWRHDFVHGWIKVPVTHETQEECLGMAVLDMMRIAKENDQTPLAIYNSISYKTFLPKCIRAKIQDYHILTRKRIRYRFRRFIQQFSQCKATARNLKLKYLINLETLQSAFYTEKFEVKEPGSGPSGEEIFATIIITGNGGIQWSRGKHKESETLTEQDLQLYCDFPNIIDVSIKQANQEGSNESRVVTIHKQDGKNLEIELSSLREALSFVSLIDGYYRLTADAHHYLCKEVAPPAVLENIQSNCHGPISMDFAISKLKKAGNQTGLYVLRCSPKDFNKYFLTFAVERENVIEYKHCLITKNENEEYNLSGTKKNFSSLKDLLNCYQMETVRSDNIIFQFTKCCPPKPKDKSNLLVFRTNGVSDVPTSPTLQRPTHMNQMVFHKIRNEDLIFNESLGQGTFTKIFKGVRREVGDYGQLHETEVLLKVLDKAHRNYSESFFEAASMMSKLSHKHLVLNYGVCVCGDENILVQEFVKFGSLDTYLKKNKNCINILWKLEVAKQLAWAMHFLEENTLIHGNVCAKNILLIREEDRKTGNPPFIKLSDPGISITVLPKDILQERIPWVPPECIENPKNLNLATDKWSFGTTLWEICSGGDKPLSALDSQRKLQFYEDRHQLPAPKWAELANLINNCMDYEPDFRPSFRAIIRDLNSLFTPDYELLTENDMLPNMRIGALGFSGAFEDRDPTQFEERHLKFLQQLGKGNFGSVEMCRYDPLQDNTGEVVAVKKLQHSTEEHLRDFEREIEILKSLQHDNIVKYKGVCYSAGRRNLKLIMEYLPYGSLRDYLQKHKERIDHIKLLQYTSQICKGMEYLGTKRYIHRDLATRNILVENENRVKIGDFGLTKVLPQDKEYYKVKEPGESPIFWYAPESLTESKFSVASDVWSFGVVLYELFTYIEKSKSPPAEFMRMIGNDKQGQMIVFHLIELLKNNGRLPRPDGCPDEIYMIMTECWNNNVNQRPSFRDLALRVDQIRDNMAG
Nature of the assay: Kinobeads assay, JAK2. In kind it is binding. As to conditions: mixed Molt4/Ramos cell lysate, dot blot detection. An outline of the steps:
as §1

In the case of `OCCn1cc(Nc2ncc3cnn(Cc4c(F)cccc4C(F)(F)F)c3n2)cn1` [Example 261, 2-(4-((1-(2-Fluoro-6-(trifluoromethyl)benzyl)-1H-pyrazolo[3,4-d]pyrimidin-6-yl)amino)-1H-pyrazol-1-yl)ethanol], the IC50 (commonly the concentration that gives 50% inhibition) is less than 100 nM in assay [1] and 1000 to 10000 nM in assay [2].

Consider `OCCn1cc(Nc2ncc3cnn(Cc4c(F)c(F)cc(N5CCNCC5)c4F)c3n2)cn1` [Example 283, 2-(4-((1-(2,3,6-Trifluoro-5-(piperazin-1-yl)benzyl)-1H-pyrazolo[3,4-d]pyrimidin-6-yl)amino)-1H-pyrazol-1-yl)ethanol], for which the IC50 in assay [1] is less than 100 nM; in assay [2], 1000 to 10000 nM.

`CNC(=O)Cn1cc(Nc2ncc3cnn(Cc4ccccc4F)c3n2)cn1` [Example 290, 2-(4-((1-(2-Fluorobenzyl)-1H-pyrazolo[3,4-d]pyrimidin-6-yl)amino)-1H-pyrazol-1-yl)-N-methylacetamide]: the IC50 in assay [1] was less than 100 nM; in assay [2], 100 to 1000 nM.

`CNC(=O)Cn1cc(Nc2ncc3cnn(Cc4cccc(F)n4)c3n2)cn1` [Example 291, 2-(4-((1-((6-Fluoropyridin-2-yl)methyl)-1H-pyrazolo[3,4-d]pyrimidin-6-yl)amino)-1H-pyrazol-1-yl)-N-methylacetamide]: the values for the IC50 in assay [1] and in assay [2] were less than 100 nM and 1000 to 10000 nM, respectively.

For `O=C1COCCN1c1ccc(F)c(Cn2ncc3cnc(Nc4cnn(CCO)c4)nc32)c1F` [Example 293, 4-(2,4-Difluoro-3-((6-((1-(2-hydroxyethyl)-1H-pyrazol-4-yl)amino)-1H-pyrazolo[3,4-d]pyrimidin-1-yl)methyl)phenyl)morpholin-3-one], the IC50 is less than 100 nM in assay [1] and 1000 to 10000 nM in assay [2].

Consider `Cn1cc(Nc2ncc3cnn(Cc4c(F)ccc(N5CCNCC5)c4F)c3n2)cn1` [Example 301, 1-(2,6-Difluoro-3-(piperazin-1-yl)benzyl)-N-(1-methyl-1H-pyrazol-4-yl)-1H-pyrazolo[3,4-d]pyrimidin-6-amine], for which the IC50 is less than 100 nM in assay [1] and 1000 to 10000 nM in assay [2].

Regarding `O=C1CNCCN1c1ccc(F)c(Cn2ncc3cnc(Nc4cnn(CCO)c4)nc32)c1F` [Example 302, 1-(2,4-Difluoro-3-((6-((1-(2-hydroxyethyl)-1H-pyrazol-4-yl)amino)-1H-pyrazolo[3,4-d]pyrimidin-1-yl)methyl)phenyl)piperazin-2-one], the IC50 is less than 100 nM in assay [1] and 1000 to 10000 nM in assay [2].

With `OCCn1cc(Nc2ncc3cnn(Cc4c(F)ccc(N5CCNCC5)c4F)c3n2)cn1` [Example 304, 2-(4-((1-(2,6-Difluoro-3-(piperazin-1-yl)benzyl)-1H-pyrazolo[3,4-d]pyrimidin-6-yl)amino)-1H-pyrazol-1-yl)ethanol], the IC50 is less than 100 nM in assay [1] and 1000 to 10000 nM in assay [2].

On to `Fc1ccccc1Cn1ncc2cnc(Nc3cnn(CC4CCNC4)c3)nc21` (centres unmarked) [Example 306, 1-(2-Fluorobenzyl)-N-(1-(pyrrolidin-3-ylmethyl)-1H-pyrazol-4-yl)-1H-pyrazolo[3,4-d]pyrimidin-6-amine], for which the IC50 in assay [1] was less than 100 nM; in assay [2], 100 to 1000 nM.

As to `OCCn1cc(Nc2ncc3cnn(Cc4cccc(F)n4)c3n2)cn1` [Example 314, 2-(4-((1-((6-Fluoropyridin-2-yl)methyl)-1H-pyrazolo[3,4-d]pyrimidin-6-yl)amino)-1H-pyrazol-1-yl)ethanol], the IC50 in assay [1] is less than 100 nM; in assay [2], 100 to 1000 nM.
